According to patent US9169224B2, “Piperazinyl and piperidinyl ureas as modulators of fatty acid amide hydrolase” (Janssen Pharmaceutica NV, priority 2004, dated 2015):
Where a name gives a salt, the structure may show the parent alone.

biological target: FAAH (Homo sapiens (Human), UniProt O00519); test: Assay Method 1: FAAH assay, T84 cell homogenate, 3H-anandamide hydrolysis; assay type: biochemical; conditions: 3H-AEA tracer 200 nM, 1 h at rt
Method: T84 frozen pellets (contents of 1-4×15 cm culture dishes) were homogenized in 300 mL of FAAH assay buffer (125 mM Tris, 1 mM EDTA, 0.2% glycerol, 0.02% Triton X-100, 0.4 mM Hepes, pH 9). The assay mixture was prepared from 50 μL of the cell homogenate, 10 μL of the test compound, and 40 μL of anandamide [1-3H-ethanolamine] (^3H-AEA; Perkin-Elmer, 10.3 Ci/mmol), which was added last, for a final tracer concentration of 200 nM. The reaction mixture was incubated at rt for 1 hour (h). During the incubation, 96-well Multiscreen filter plates (catalog number MAFCNOB50; Millipore, Bedford, Mass., USA) were loaded with 25 μL of activated charcoal (Multiscreen column loader, catalog number MACL09625, Millipore) and washed once with 100 μL of MeOH. Also during the incubation, 96-well DYNEX MicroLite plates (catalog number NL510410) were loaded with 100 μL of MicroScint40 (catalog number 6013641, Packard Bioscience, Meriden, Conn., USA). After the 1 h incubation, 60 μL of the reaction mixture were transferred to the charcoal plates, which were then assembled on top of the DYNEX plates using Centrifuge Alignment Frames (catalog number MACF09604, Millipore). The unbound, labeled ethanolamine was centrifuged through to the bottom plate (5 min at 2000 rpm), which was preloaded with the scintillant, as described above. The plates were sealed and left at rt for 1 h before counting on a Hewlett Packard TopCount.

FAAH, sequence (O00519 whole entry): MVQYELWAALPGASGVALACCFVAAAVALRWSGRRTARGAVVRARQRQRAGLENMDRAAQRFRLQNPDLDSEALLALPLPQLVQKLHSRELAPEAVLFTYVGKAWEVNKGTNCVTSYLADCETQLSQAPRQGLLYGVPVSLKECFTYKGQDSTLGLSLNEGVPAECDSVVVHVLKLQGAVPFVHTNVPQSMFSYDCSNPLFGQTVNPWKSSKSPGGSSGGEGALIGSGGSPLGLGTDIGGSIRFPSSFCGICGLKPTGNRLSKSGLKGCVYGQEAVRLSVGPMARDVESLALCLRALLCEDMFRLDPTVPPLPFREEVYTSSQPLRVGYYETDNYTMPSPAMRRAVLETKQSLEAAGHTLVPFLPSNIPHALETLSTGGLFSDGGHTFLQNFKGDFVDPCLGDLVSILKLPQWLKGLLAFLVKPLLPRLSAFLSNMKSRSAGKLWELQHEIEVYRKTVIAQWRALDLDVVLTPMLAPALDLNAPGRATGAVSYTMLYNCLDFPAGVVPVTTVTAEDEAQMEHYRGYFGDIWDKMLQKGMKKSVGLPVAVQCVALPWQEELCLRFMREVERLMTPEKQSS

SMILES	IC50 [nM]
O=C(Nc1ccccc1)N1CCN(Cc2cccc3c2OCO3)CC1 [Example 51, 4-Benzo[1,3]dioxol-4-ylmethyl-piperazine-1-carboxylic acid phenylamide]	6000
O=C(Nc1ccccc1)N1CCN(Cc2ccccc2)CC1 [Example J, 4-Benzyl-piperazine-1-carboxylic acid phenylamide, reference compound]	2000
CCn1c2ccccc2c2cc(CN3CCN(C(=O)Nc4ccccc4)CC3)ccc21 [Example 80, 4-(9-Ethyl-9H-carbazol-3-ylmethyl)-piperazine-1-carboxylic acid phenylamide]	330
O=C(Nc1ccccc1)N1CCN(Cc2cc3ccccc3c3ccccc23)CC1 [Example 67, 4-Phenanthren-9-ylmethyl-piperazine-1-carboxylic acid phenylamide]	8000
O=C(Nc1ccccc1)N1CCN(Cc2cccc3ccccc23)CC1 [Example 40, 4-Naphthalen-1-ylmethyl-piperazine-1-carboxylic acid phenylamide]	1100
O=C(Nc1ccccc1)N1CCN(C2CCc3cc(Br)ccc3C2)CC1 (centres unmarked) [Example L, 4-(6-Bromo-1,2,3,4-tetrahydro-naphthalen-2-yl)-piperazine-1-carboxylic acid phenylamide, reference compound]	370
Cc1ccccc1NC(=O)N1CCN(Cc2cnc3ccccc3c2)CC1 [Example 103, 4-Quinolin-3-ylmethyl-piperazine-1-carboxylic acid o-tolylamide]	6000
O=C(Nc1ccccc1)N1CCN(CCc2ccccc2)CC1 [Example F, 4-Phenethyl-piperazine-1-carboxylic acid phenylamide, reference compound]	> 10000
O=C(Nc1ccccc1)N1CCN(Cc2ccc(-c3ccccc3)cc2)CC1 [Example 49, 4-Biphenyl-4-ylmethyl-piperazine-1-carboxylic acid phenylamide]	4500
O=C(Nc1ccccc1Cl)N1CCN(Cc2cnc3ccccc3c2)CC1 [Example 99, 4-Quinolin-3-ylmethyl-piperazine-1-carboxylic acid (2-chloro-phenyl)-amide]	1600
O=C(Nc1ccccc1)N1CCN(Cc2ccc3c(c2)OCCO3)CC1 [Example 35, 4-(2,3-Dihydro-benzo[1,4]dioxin-6-ylmethyl)-piperazine-1-carboxylic acid phenylamide]	460
O=C(Nc1ccccc1)N1CCN(Cc2cccc(Br)n2)CC1 [Example 71, 4-(6-Bromo-pyridin-2-ylmethyl)-piperazine-1-carboxylic acid phenylamide]	6000
C=Cc1cccc(CN2CCN(C(=O)Nc3ccccc3)CC2)c1 [Example 37, 4-(3-Vinyl-benzyl)-piperazine-1-carboxylic acid phenylamide]	590
Cn1ccc2ccc(CN3CCN(C(=O)Nc4ccccc4)CC3)cc21 [Example 76, 4-(1-Methyl-1H-indol-6-ylmethyl)-piperazine-1-carboxylic acid phenylamide]	350
O=C(Nc1ccc(Cl)cc1)N1CCN(Cc2cnc3ccccc3c2)CC1 [Example 101, 4-Quinolin-3-ylmethyl-piperazine-1-carboxylic acid (4-chloro-phenyl)-amide]	360
O=C(Nc1ccccc1)N1CCN(Cc2ccc3c(c2)CCO3)CC1 [Example 38, 4-(2,3-Dihydro-benzofuran-5-ylmethyl)-piperazine-1-carboxylic acid phenylamide]	620
O=C(Nc1ccccc1Cl)N1CCN(Cc2ccc(Br)c(Br)c2)CC1 [Example 93, 4-(3,4-Dibromo-benzyl)-piperazine-1-carboxylic acid (2-chloro-phenyl)-amide]	460
Cc1cccc(CN2CCN(C(=O)Nc3ccccc3)CC2)c1 [Example 42, 4-(3-Methyl-benzyl)-piperazine-1-carboxylic acid phenylamide]	2000
O=C(Nc1ccc(Cl)cc1)N1CCN(Cc2ccc(Br)c(Br)c2)CC1 [Example 95, 4-(3,4-Dibromo-benzyl)-piperazine-1-carboxylic acid (4-chloro-phenyl)-amide]	500

More lines, now with the values ahead:

IC50 [nM]	SMILES
280	O=C(Nc1ccccc1)N1CCN(Cc2cccc(Br)c2)CC1 [Example C, 4-(3-Bromo-benzyl)-piperazine-1-carboxylic acid phenylamide, reference compound]
270	COc1ccc(NC(=O)N2CCN(Cc3cnc4ccccc4c3)CC2)cc1 [Example 108, 4-Quinolin-3-ylmethyl-piperazine-1-carboxylic acid (4-methoxy-phenyl)-amide]
270	O=C(Nc1ccccc1)N1CCC(Cc2ccccc2)CC1 [Example H, 4-Benzyl-piperidine-1-carboxylic acid phenylamide, reference compound]
200	O=C(Nc1cccc(Cl)c1)N1CCN(Cc2cnc3ccccc3c2)CC1 [Example 100, 4-Quinolin-3-ylmethyl-piperazine-1-carboxylic acid (3-chloro-phenyl)-amide]
180	O=C(Nc1ccccc1)N1CCN(Cc2ccc3c(c2)CCC3)CC1 [Example 30, 4-Indan-5-ylmethyl-piperazine-1-carboxylic acid phenylamide]
130	COc1ccccc1NC(=O)N1CCN(Cc2ccc(Br)c(Br)c2)CC1 [Example 91, 4-(3,4-Dibromo-benzyl)-piperazine-1-carboxylic acid (2-methoxy-phenyl)-amide]
120	O=C(Nc1ccccc1)N1CCN(Cc2cccc(I)c2)CC1 [Example A, 4-(3-Iodo-benzyl)-piperazine-1-carboxylic acid phenylamide, reference compound]
120	O=C(Nc1ccccc1)N1CCN(Cc2ccc(F)c(Br)c2)CC1 [Example 29, 4-(3-Bromo-4-fluoro-benzyl)-piperazine-1-carboxylic acid phenylamide]
80	O=C(Nc1ccccc1)N1CCN(Cc2cccc(Oc3ccccc3)c2)CC1 [Example 28, 4-(3-Phenoxy-benzyl)-piperazine-1-carboxylic acid phenylamide]
80	O=C(Nc1ccccc1)N1CCN(Cc2ccc(Cl)c(C(F)(F)F)c2)CC1 [Example 82, 4-(4-Chloro-3-trifluoromethyl-benzyl)-piperazine-1-carboxylic acid phenylamide]
69	CC(C)(C)c1ccc(Oc2cccc(CN3CCN(C(=O)Nc4ccccc4)CC3)c2)cc1 [Example 63, 4-[3-(4-tert-Butyl-phenoxy)-benzyl]-piperazine-1-carboxylic acid phenylamide]
67	O=C(Nc1ccccc1)N1CCN(Cc2cccc(Oc3ccc4c(c3)OCO4)c2)CC1 [Example 136, 4-[3-(Benzo[1,3]dioxol-5-yloxy)-benzyl]-piperazine-1-carboxylic acid phenylamide]
57	O=C(Nc1ccccc1)N1CCN(Cc2cccc(OCc3ccccc3)c2)CC1 [Example 25, 4-(3-Benzyloxy-benzyl)-piperazine-1-carboxylic acid phenylamide]
52	O=C(Nc1ccccc1)N1CCN(Cc2ccc(I)cc2)CC1 [Example 24, 4-(4-Iodo-benzyl)-piperazine-1-carboxylic acid phenylamide]
48	COc1cccc(NC(=O)N2CCN(Cc3ccc(Br)c(Br)c3)CC2)c1 [Example 87, 4-(3,4-Dibromo-benzyl)-piperazine-1-carboxylic acid (3-methoxy-phenyl)-amide]
33	O=C(Nc1ccccc1)N1CCN(Cc2cccc(Oc3ccc4ccccc4c3)c2)CC1 [Example 131, 4-[3-(Naphthalen-2-yloxy)-benzyl]-piperazine-1-carboxylic acid phenylamide]
32	O=C(Nc1ccccc1)N1CCN(Cc2ccc(OCc3ccccc3)cc2)CC1 [Example 77, 4-(4-Benzyloxy-benzyl)-piperazine-1-carboxylic acid phenylamide]
23	O=C(Nc1ccccc1)N1CCN(Cc2cnc3ccc(Cl)cc3c2)CC1 [Example 69, 4-(6-Chloro-quinolin-3-ylmethyl)-piperazine-1-carboxylic acid phenylamide]
9	COc1ccc(Oc2cccc(CN3CCN(C(=O)Nc4ccccc4)CC3)c2)cc1 [Example 65, 4-[3-(4-Methoxy-phenoxy)-benzyl]-piperazine-1-carboxylic acid phenylamide]

same assay, conditions: 3H-AEA tracer 200 nM, 1 h at rt, dihydrochloride

SMILES	IC50 [nM]
O=C(Nc1ccccc1)N1CCN(Cc2ccc3ccccc3n2)CC1 [Example 163, 4-Quinolin-2-ylmethyl-piperazine-1-carboxylic acid phenylamide dihydrochloride]	23

same assay, conditions: 3H-AEA tracer 200 nM, 1 h at rt, hydrochloride

IC50 [nM]	SMILES
1200	O=C(Nc1ccccc1)N1CCN(Cc2ccc3c(c2)OCO3)CC1 [Example B1, 4-Benzo[1,3]dioxol-5-ylmethyl-piperazine-1-carboxylic acid phenylamide hydrochloride, reference compound]
210	COc1cc(Br)cc(CN2CCN(C(=O)Nc3ccccc3)CC2)c1O [Example 161, 4-(5-Bromo-2-hydroxy-3-methoxy-benzyl)-piperazine-1-carboxylic acid phenylamide hydrochloride]
